What was measured:
Phytophthora cactorum = assay: 96 well plate test; format: cell-based; settings: 96 well plate assay, agar amended to 20, 2, 0.2 and 0.02 ppm, assessed after 2 to 3 days, read-out: EC50 Phytophthora spp. (Phytophthora cactorum)
Experimental: Compounds were screened in 96 well plates with 10 compounds per plate. Each compound was screened using agar amended to 20, 2, 0.2 and 0.02 ppm, with proline at 50 and 10 ppm and 0.2% DMSO used as controls. Each test concentration and standard was replicated twice on a plate. Compounds were screened against Phytophthora cactorum. The agar used in the test is a 1% potato dextrose agar. 1000 spores/mL agar were added to the appropriate agar. A ×10 stock solution in 2% DMSO was produced for each dose i.e. 200, 20, 2 and 0.2 ppm, and 10 μl of this added to the appropriate wells on the plate. An equivalent amount of 2% DMSO and proline stock at 500 and 100 ppm were added for the controls. To each well 90 μl of the appropriate agar spore suspension was added to give the required final well concentrations. Plates were incubated at room temperature (18° C.) and assessed after 2 to 3 days. The amount of pathogen growth in each well was compared to the DMSO controls and an EC50 concentration was calculated. The results are provided in Table 1 in which H represents no control detected at 20 ppm, G represents no control detected at 2 ppm (where the highest test concentration in the assay was 2 ppm), F represents an EC50 of ≥20 ppm, E represents an EC50 of less than 20 ppm.

Pythium ultimum = assay: Amended agar assay; format: cell-based; set-up: key to % control Pythium ultimum 2 ppm / % control Pythium ultimum 20 ppm: D: no control detected at this concentration; C: up to 50% control; B: from 50 to 99% control; A: a control of greater than 99%, i.e. no detectable colony growth; settings: amended PDA agar, % reduction in colony growth vs control plate, 18° C.; for inhibition of growth at 2 ppm / inhibition of growth at 20 ppm: Globisporangium ultimum
Experimental: Testing was carried out on potato dextrose agar (PDA) amended with each compound at a test concentration of typically 20 ppm or 2 ppm. Amended agar was poured into three replicate 9 cm petri dishes. Each replicate dish was inoculated in the centre with a 5 mm agar plug taken from the leading edge of a culture aged between 2 and 7 days old; the age of the culture was dependant on the growth rate of the pathogen being tested. The test pathogens were Pythium ultimum and Phytophthora cinnamomi. Plates were incubated at 18° C. and the diameter of each colony measured before growth on the fastest growing plate reached the plate edge. This varied between 2 and 7 days depending on the growth rate of test pathogens. The % reduction in colony growth compared to the control plate was calculated for each pathogen. The results are provided in Table 1, in which D represents no control detected at this concentration; C represents up to 50% control; B from 50 to 99% control; and A represents a control of greater than 99%, i.e. no detectable colony growth.
Alternatively, or in addition, the same assay was conducted at descending test concentrations with 5-fold dilutions typically down to 0.032 ppm though sometimes as low as 0.00026 ppm, and an EC50 (the concentration at which 50% control would be achieved) was determined. The results are provided in Table 1 in which G represents no control detected at 20 ppm, F represents an EC50 of ≥20 ppm and E represents an EC50 of less than 20 ppm.

Row | SMILES | EC50 (Phytophthora cactorum) [µg/mL] | inhibition of growth at 2 ppm (Pythium ultimum) [%] | inhibition of growth at 20 ppm (Pythium ultimum) [%] | % control Pythium ultimum 2 ppm (Pythium ultimum)
1 | Cn1nnnc1-n1c(OCc2cccc(Br)n2)nc2ccccc21 [Example 17, 2-((6-bromopyridin-2-yl)methoxy)-1-(1-methyl-1H-tetrazol-5-yl)-1H-benzo[d]imidazole] | ≥ 20 | < 50 | – | –
2 | CC(C)Nc1cccc(COc2nc3ccccc3n2-c2nnnn2C)n1 [Example 50, N-Isopropyl-6-(((1-(1-methyl-1H-tetrazol-5-yl)-1H-benzo[d]imidazol-2-yl)oxy)methyl)pyridin-2-amine] | < 20 | > 99 | – | –
3 | CCCCNc1cccc(COc2nc3ccccc3n2-c2nnnn2C)n1 [Example 43] | < 20 | > 99 | – | –
4 | Cn1nnnc1-n1c(OCc2ccncn2)nc2ccccc21 [Example 7] | < 20 | > 99 | – | –
5 | CCCOc1ccnc(COc2nc3ccccc3n2-c2nnnn2C)c1 [Example 77] | < 20 | > 99 | – | –
6 | Cn1nnnc1-n1c(OCc2cccc(NC3CCCC3)n2)nc2ccccc21 [Example 81] | < 20 | > 99 | – | –
7 | Cn1nnnc1-n1c(OCc2cccc(NCCc3ccccc3)n2)nc2c(Cl)cccc21 [Example 73] | < 20 | > 99 | – | –
8 | Cn1nnnc1-n1c(OCc2nc3ccccc3n2C)nc2c(Cl)cccc21 [Example 66] | < 20 | > 99 | – | –
9 | CCCCNc1cccc(COc2nc3c(Cl)cccc3n2-c2nnnn2C)n1 [Example 98] | < 20 | > 99 | – | –
10 | COc1ccnc(COc2nc3c(Cl)cccc3n2-c2nnnn2C)c1 [Example 61] | < 20 | > 99 | – | –
11 | Cn1nnnc1-n1c(OCc2cccc(NCc3ccccc3)n2)nc2ccccc21 [Example 35, N-Benzyl-6-(((1-(1-methyl-1H-tetrazol-5-yl)-1H-benzo[d]imidazol-2-yl)oxy)methyl)pyridin-2-amine] | < 20 | > 99 | – | –
12 | Cn1nnnc1-n1c(OCc2cccc(N)n2)nc2c(Cl)cccc21 [Example 59] | < 20 | > 99 | – | –
13 | Cc1cccc(CNc2cccc(COc3nc4c(Br)cccc4n3-c3nnnn3C)n2)c1 [Example 102] | < 20 | 50 to 99 | – | –
14 | CNc1cccc(COc2nc3ccccc3n2-c2nnnn2C)n1 [Example 48, N-Methyl-6-(((1-(1-methyl-1H-tetrazol-5-yl)-1H-benzo[d]imidazol-2-yl)oxy)methyl)pyridin-2-amine] | < 20 | > 99 | – | –
15 | Clc1cncnc1-n1c(OCc2nccs2)nc2ccccc21 [Example 23] | ≥ 20 | 50 to 99 | – | –
16 | Cn1nnnc1-n1c(OCc2cccc(NCC3CC3)n2)nc2c(F)cccc21 [Example 91] | < 20 | > 99 | – | –

Row | SMILES | EC50 (Phytophthora cactorum) [µg/mL] | inhibition of growth at 2 ppm (Pythium ultimum) [%] | inhibition of growth at 20 ppm (Pythium ultimum) [%] | % control Pythium ultimum 2 ppm (Pythium ultimum)
17 | Cn1nnnc1-n1c(OCc2cccc(NCc3cccc(Cl)c3)n2)nc2ccccc21 [Example 85] | < 20 | > 99 | – | –
18 | Cc1ccnc(COc2nc3ccccc3n2-c2nnnn2C)c1 [Example 11] | < 20 | > 99 | > 99 | –
19 | Cn1nnnc1-n1c(OCc2cccc(NCc3ccco3)n2)nc2ccccc21 [Example 44] | < 20 | > 99 | – | –
20 | Cn1nnnc1-n1c(OCc2cccc(NCc3ccccc3Cl)n2)nc2ccccc21 [Example 92] | < 20 | > 99 | – | –
21 | Cn1nnnc1-n1c(OCc2cccc(NCc3cccc(C#N)c3)n2)nc2ccccc21 [Example 93] | < 20 | > 99 | – | –
22 | Cn1nnnc1-n1c(OCc2cccc(NCCc3ccccc3)n2)nc2ccccc21 [Example 39] | < 20 | > 99 | – | –
23 | CCC(C)Nc1cccc(COc2nc3ccccc3n2-c2nnnn2C)n1 (stereo not drawn) [Example 82] | < 20 | > 99 | – | –
24 | Cn1nnnc1-n1c(OCc2cc(N)ccn2)nc2ccccc21 [Example 108, 2-(((1-(1-Methyl-1H-tetrazol-5-yl)-1H-benzo[d]imidazol-2-yl)oxy)methyl)pyridin-4-amine] | ≥ 20 | – | – | D
25 | Cn1nnnc1-n1c(OCc2cccc(NCC3CC3)n2)nc2ccccc21 [Example 47] | < 20 | > 99 | – | –
26 | COc1ccc(COc2nc3ccccc3n2-c2nnnn2C)nc1 [Example 56] | ≥ 20 | < 50 | – | –
27 | Cn1nnnc1-n1c(OCc2nc3ccccc3s2)nc2c(Cl)cccc21 [Example 70] | < 20 | > 99 | – | –
28 | CCOc1ccnc(COc2nc3ccccc3n2-c2nnnn2C)c1 [Example 76] | ≥ 20 | > 99 | – | –
29 | COc1cc(F)cc2c1nc(OCc1ccccn1)n2-c1nnnn1C [Example 78] | < 20 | 50 to 99 | – | –
30 | Cc1c(OC(F)(F)C(F)(F)F)ccnc1COc1nc2c(Cl)cccc2n1-c1nnnn1C [Example 60] | < 20 | > 99 | – | –
31 | Cn1nnnc1-n1c(OCc2cccc(NCc3cccc(OC(F)(F)F)c3)n2)nc2ccccc21 [Example 96] | < 20 | > 99 | – | –
32 | Cn1nnnc1-n1c(OCc2cccc(NCc3ccccn3)n2)nc2ccccc21 [Example 40] | < 20 | > 99 | – | –

The next lines start with results.

Row | EC50 (Phytophthora cactorum) [µg/mL] | SMILES | inhibition of growth at 2 ppm (Pythium ultimum) [%] | inhibition of growth at 20 ppm (Pythium ultimum) [%] | % control Pythium ultimum 2 ppm (Pythium ultimum)
33 | < 20 | Cn1nnnc1-n1c(OCc2cccc(NCCOc3ccccc3)n2)nc2c(Cl)cccc21 [Example 74] | > 99 | – | –
34 | < 20 | Cn1nnnc1-n1c(OCc2ccccn2)nc2c(Cl)cccc21 [Example 30] | > 99 | – | –
35 | ≥ 20 | COCCCOc1ccnc(COc2nc3ccccc3n2-c2ncncc2Cl)c1C [Example 10] | 50 to 99 | – | –
36 | < 20 | CCNc1cccc(COc2nc3ccccc3n2-c2nnnn2C)n1 [Example 36] | > 99 | – | –
37 | < 20 | CCCNc1cccc(COc2nc3c(Br)cccc3n2-c2nnnn2C)n1 [Example 99] | > 99 | – | –
38 | < 20 | Cn1ccc(CNc2cccc(COc3nc4ccccc4n3-c3nnnn3C)n2)n1 [Example 45] | > 99 | – | –
39 | < 20 | COc1ccnc(COc2nc3ccccc3n2-c2nnnn2C)c1OC [Example 13] | 50 to 99 | > 99 | –
40 | < 20 | Cn1nnnc1-n1c(OCc2cccc(NCc3ccc(F)cc3)n2)nc2ccccc21 [Example 86] | > 99 | – | –
41 | < 20 | Cn1nnnc1-n1c(OCc2cccc(NCCC(F)(F)F)n2)nc2ccccc21 [Example 83] | > 99 | – | –
42 | < 20 | CC(C)CCCNc1cccc(COc2nc3ccccc3n2-c2nnnn2C)n1 [Example 51] | > 99 | – | –
43 | < 20 | Cn1nnnc1-n1c(OCc2nc3ccccc3n2C)nc2c(Br)cccc21 [Example 105] | > 99 | – | –
44 | < 20 | Cn1nnnc1-n1c(OCc2cccc(N)n2)nc2c(Br)cccc21 [Example 106] | 50 to 99 | – | –
45 | < 20 | Cn1nnnc1-n1c(OCc2cccc(NCC3CC3)n2)nc2c(Br)cccc21 [Example 100] | > 99 | – | –
46 | < 20 | CC(C)CCNc1cccc(COc2nc3ccccc3n2-c2nnnn2C)n1 [Example 37] | > 99 | – | –
47 | ≥ 20 | COc1ccnc(COc2nc3ccccc3n2-c2ncncc2Cl)c1 [Example 22] | 50 to 99 | – | –
48 | < 20 | Cc1cccc(CNc2cccc(COc3nc4c(Cl)cccc4n3-c3nnnn3C)n2)c1 [Example 101] | 50 to 99 | – | –
49 | ≥ 20 | Cn1nnnc1-n1c(OCc2cc(N3CCOCC3)ccn2)nc2c(Cl)cccc21 [Example 75] | 50 to 99 | – | –
50 | ≥ 20 | Cn1nnnc1-n1c(OCc2cccc(CO)n2)nc2c(Cl)cccc21 [Example 71] | – | – | D

From US11241013B2, “Benzimidazole compounds as agricultural chemicals” (REDAG CROP PROTECTION LTD, priority 2017, dated 2022)
